Legend:
[1] = system: markers of inflammation in sputum; experiment: Markers of inflammation in induced sputum; format: in vivo, human; details: geometric mean (%CV); for α-2-macroglobulin in sputum, post-baseline: mean of Days 20, 26 and 32
Description: (§1) Induced sputum was collected pre-dose on Day 1 of each treatment period (for the first treatment period, the sample could be collected up to 10 days prior to Day 1), and 2 h post-dose on Days 20, 26 and 32 (see the Additional file 1 for further detail on sputum and blood analysis methods). Blood samples were taken pre-dose on Day 1, and pre-dose and at 30 min, and 1, 1.5, 2, 3, 4, 6, 8 and 12 h post-dose on Day 32. Other pre-dose assessments on Days 1 and 32 were spirometry (forced expiratory volume in 1 s [FEV1] and forced vital capacity [FVC]), forced oscillometry, and COPD Assessment Test (CAT), with Baseline Dyspnea Index recorded on Day 1 and Transition Dyspnea Index (TDI) on Day 32. Central and peripheral airways mechanics were assessed using forced oscillometry, with the following values determined: inspiratory and expiratory resistance (at 5 and 19 Hz), inspiratory and expiratory reactance, tidal expiratory flow limitation and the percentage of flow limited breaths.
A patient had to have a minimum of one acceptable sputum sample on Day 20, 26 or 32 to be included in the sputum biomarker evaluation for that treatment period, with the available cell count and biomarker data averaged for each patient. The mean change from baseline (pre-dose on Day 1 of each treatment period) was then compared between treatments using an analysis of covariance (ANCOVA) that included treatment, patient and period as fixed effects, and baseline values as covariate. The mean change from baseline to Day 32 for biomarkers in blood were analysed using the same model as for sputum data. All data were log-transformed before analysis, and the results are presented as ratio of geometric means.
Effect of CHF6001 on inflammatory biomarkers – Additional file 1 […]
Analysis of biomarkers and CHF6001 concentration in sputum
Sputum samples were collected by sputum induction, with patients breathing in nebuli sed hypertonic saline at increasing concentrations (3%, then 4% and finally 5%) while wearing a nose clip. Sputum plugs were isolated, processed by centrifugation and analysed to determine inflammatory cell counts (with total cell counts performed by each s ite’s local laboratory and differential counts at a central laboratory), as follows.
All solid or dense-looking material was collected from the clear salivary fluid into a stainless steel Petri dish lid. Sputum plugs were then gathered and condensed into one mass. After cleaning the Petri dish, cold Dulbecco's Phosphate -Buffered Saline equal to eight times the weight of the sputum plug was added, then dispersed , mixed and vortexed for 15 sec, before gently agitating on a rolling mixer or rocker for 15 min at room temperature. The resulting mixture was centrifuged at 790 g for 10 min at 4C. A volume of the supernatant equal to four times the weight of the sputum plug was removed and again centrifuged at 1500 g for 10 min at 4C. The clarified supernatant was divided into four equal aliquots, which were shipped in an upright position at –80C to a central laboratory for biomarker assessment. Levels of biomarkers were assessed as follows:
• α-2-macroglobulin: Meso Scale Diagnostics ELISA method .
• Interleukin (IL) 6 and 1β, C-X-C motif chemokine ligand 8 (CXCL8) and tumour necrosis factor (TNF) α: Meso Scale Diagnostics Pro-inflammatory v-PLEX Plus kit.
• Leukotriene B4: High pressure liquid chromatography with tandem mass spectroscopy (HPLC-MS/MS).
• Myeloperoxidase (MPO): Meso Scale Diagnostics MPO v-PLEX kit.
• Neutrophil elastase (NE): Luminex MAGPIX System Human Sepsis Magnetic Bead […]
• Monocyte chemotactic protein (MCP) 1 (also known as C-C motif chemokine ligand [CCL] 2) and macrophage inflammatory protein (MIP) 1β (also known as CCL4):
Meso Scale Diagnostics Chemokine v-PLEX Plus kit.
• Matrix metalloproteinase (MMP) 9: Sandwich Immunoassay, using PheraSTAR Plate […]
• Total protein: Pierce BCA protein assay.
Validation procedures followed those outlined in the “Guideline on Bioanalytical Method […]

patients with COPD = experiment: Spirometry and symptoms (FEV1, FVC, CAT, TDI); format: in vivo, human; details: for TDI, adjusted mean difference vs placebo (95% CI): Day 32; for CAT, adjusted mean difference vs placebo (95% CI) / Pre-dose FEV1, adjusted mean difference vs placebo (95% CI) / Pre-dose FVC, adjusted mean difference vs placebo (95% CI): change from baseline to Day 32
Description: as §1
The mean changes from baseline to Day 32 for lung function, CAT and TDI were analysed using similar methodology to sputum biomarkers, but were not log-transformed. […] The sputum concentration of CHF6001 was also evaluated at 2 h post-dose, using the mean of all values measured on Days 20, 26 and 32. Pharmacokinetic variables were summarised using geometric means and coefficients of variation, except for Tmax,ss, which is presented as median (range).

[2] = Stability of CHF6001 in human sputum samples (bioanalytical validation); format: in vitro ADME
Description: Effect of CHF6001 on inflammatory biomarkers – Additional file 1
Approximately 80 to 100 cells were to be counted per square , with the number of live leukocytes, dead leukocytes and squamous cells counted.
To determine differential cell counts, the sputum cell suspension was adjusted with Dulbecco's Phosphate -Buffered Saline to give 0.5x10^6 cells/mL. A total of 75 µL was used to prepare a cytoslide, which was then centrifuged at 450 rpm for 6 min and allowed to air dry for a minimum of 30 min before being fixed with methanol for 10 min. Four slides were prepared for each sample.
Only one of the sputum samples induced at 2 h post-dose on Days 20, 26 or 32 was used to evaluate CHF6001 concentration, with the evaluation performed only if a minimum of 300 mg of residual sputum remained. Approximately 30 mg of sputum plug was transferred to a polypropylene cryotube, and was shipped in an upright position at –80C to a central laboratory for analysis. The concentration of CHF6001 was evaluated using a LC-MS/MS method following solid phase extraction. Validation procedures were the same as those listed above for biomarkers. […]
over the calibration range of 30 to 20,000 ng/mL. The precision and accuracy of the method […]
30 ng/mL and within 15% at all other concentrations. No significant matrix effects were […]
temperature (nominally +22C), after storage for 93 days in a freezer set at –80C and after four freeze-thaw cycles at nominally –80C / +22C. The method was considered to be suitable for measuring concentrations of CHF6001 in human sputum samples from […]
Analysis of biomarkers and CHF6001 concentration in blood
The levels of inflammatory biomarkers were evaluated from blood collected at 2 h post-dose

SMILES: CS(=O)(=O)Nc1ccc(C(=O)O[C@@H](Cc2c(Cl)c[n+]([O-])cc2Cl)c2ccc(OC(F)F)c(OCC3CC3)c2)cc1OCC1CC1 [CHF6001]
- C-X-C motif chemokine ligand 8 in sputum, post-baseline ([1]; 800 µg BID): 1828.97 (140.2) pg/mL
- Interleukin 1β in sputum, post-baseline ([1]; 800 µg BID): 13.6127 (599.5) pg/mL
- Interleukin 6 in sputum, post-baseline ([1]; 800 µg BID): 48.7856 (108.7) pg/mL
- Leukotriene B4 in sputum, post-baseline ([1]; 800 µg BID): 872.363 (135.0) pg/mL
- Macrophage inflammatory protein 1β in sputum, post-baseline ([1]; 800 µg BID): 68.2963 (153.5) pg/mL
- Matrix metalloproteinase 9 in sputum, post-baseline ([1]; 800 µg BID): 175.9824 (292.9) ng/mL
- Monocyte chemotactic protein-1 in sputum, post-baseline ([1]; 800 µg BID): 136.8746 (89.9) pg/mL
- Myeloperoxidase in sputum, post-baseline ([1]; 800 µg BID): 476,409.369 (720.8) pg/mL
- Neutrophil elastase in sputum, post-baseline ([1]; 800 µg BID): 82,640.61 (281.5) pg/mL
- Total protein in sputum, post-baseline ([1]; 800 µg BID): 320.329 (100.5) µg/mL
- Tumour necrosis factor α in sputum, post-baseline ([1]; 800 µg BID): 1.595 (265.2) pg/mL
- α-2-macroglobulin in sputum, post-baseline ([1]; 800 µg BID): 247.464 (233.4) ng/mL
- C-X-C motif chemokine ligand 8 in sputum, post-baseline ([1]; 1600 µg BID): 2104.09 (127.3) pg/mL
- Interleukin 1β in sputum, post-baseline ([1]; 1600 µg BID): 13.2876 (377.1) pg/mL
- Interleukin 6 in sputum, post-baseline ([1]; 1600 µg BID): 55.8291 (107.5) pg/mL
- Leukotriene B4 in sputum, post-baseline ([1]; 1600 µg BID): 678.965 (274.2) pg/mL
- Macrophage inflammatory protein 1β in sputum, post-baseline ([1]; 1600 µg BID): 60.8680 (139.7) pg/mL
- Matrix metalloproteinase 9 in sputum, post-baseline ([1]; 1600 µg BID): 176.3384 (249.4) ng/mL
- Monocyte chemotactic protein-1 in sputum, post-baseline ([1]; 1600 µg BID): 152.5465 (108.2) pg/mL
- Myeloperoxidase in sputum, post-baseline ([1]; 1600 µg BID): 494,342.192 (536.6) pg/mL
- Neutrophil elastase in sputum, post-baseline ([1]; 1600 µg BID): 84,470.09 (238.7) pg/mL
- Total protein in sputum, post-baseline ([1]; 1600 µg BID): 327.176 (102.5) µg/mL
- Tumour necrosis factor α in sputum, post-baseline ([1]; 1600 µg BID): 1.687 (342.0) pg/mL
- α-2-macroglobulin in sputum, post-baseline ([1]; 1600 µg BID): 247.877 (270.6) ng/mL
- TDI, adjusted mean difference vs placebo (95% CI) (patients with COPD; 800 µg BID): 0.3 (–0.1 to 0.8)
- CAT, adjusted mean difference vs placebo (95% CI) (patients with COPD; 800 µg BID): –0.3 (–1.4 to 0.8)
- Pre-dose FEV1, adjusted mean difference vs placebo (95% CI) (patients with COPD; 800 µg BID): 13 (–26 to 52) mL
- Pre-dose FVC, adjusted mean difference vs placebo (95% CI) (patients with COPD; 800 µg BID): 25 (–58 to 109) mL
- TDI, adjusted mean difference vs placebo (95% CI) (patients with COPD; 1600 µg BID): –0.1 (–0.6 to 0.4)
- CAT, adjusted mean difference vs placebo (95% CI) (patients with COPD; 1600 µg BID): –0.3 (–1.3 to 0.8)
- Pre-dose FEV1, adjusted mean difference vs placebo (95% CI) (patients with COPD; 1600 µg BID): –35 (–74 to 4) mL
- Pre-dose FVC, adjusted mean difference vs placebo (95% CI) (patients with COPD; 1600 µg BID): –26 (–109 to 58) mL
- Lung function (FEV1 and FVC) or symptoms vs placebo (patients with COPD; either dose (800 or 1600 μg BID)): Neither CHF6001 dose differed from placebo
- Storage time found stable in sputum ([2]; freezer set at –80C): 93 days
- Freeze-thaw cycles found stable in sputum ([2]; nominally –80C / +22C): four
- Time found stable in sputum ([2]; sample processing temperature (nominally +22C)): up to 24 h
